Holding throughout (assay): Broth dilution growth inhibition (OD600)
Type in all cases: cell-based
Background: Broth dilution looks for growth in wells or tubes with falling amounts of substance.

Test [1] concerns Pseudomonas aeruginosa ATCC28753. The conditions noted are these: TSB, mean ± SD, triplicate; for Inhibitory percentage, P. aeruginosa: synthetic peptides. The procedure:
(§1) Three human pathogenic bacteria were selected for investigation, namely Bacillus subtilis ATCC6633, Pseudomonas aeruginosa ATCC28753, and Burkholderia cepacia ATCC25416.
(§2) In evaluating antibacterial activity by the broth dilution assay, human pathogenic bacteria were first prepared in tryptic soy agar (TSA) (Difco BBL, Sparks, MD, USA) for 24 h at 28 °C. Then, a single colony was cultured in tryptic soy broth (TSB) (Difco BBL, Sparks, MD, USA) for 12–16 h to reach an inoculum of 0.05 at OD600. The antibacterial activity of lower than 3 kDa protein hydrolysates/peptides was then determined against the pathogens in triplicate using 96-well microplates, with bacteria in TSB, phosphate-buffered saline (PBS), and antibiotic treatment (ampicillin and kanamycin) used as controls. The final concentration of antibiotics and protein hydrolysates/peptides was 100 µg/mL. After incubation for 0, 2, 4, and 6 h, the OD600 was documented using a microplate reader (Synergy H1 Hybrid Multi-Mode Reader, Biotek, Winusky, VT, USA).
(§3) A completely randomized design was used: protein hydrolysates/peptides from six agricultural wastes, seven agro-industrial wastes, and two fishery wastes as treatments; and human pathogenic bacteria P. aeruginosa ATCC28753, Bacillus subtilis ATCC6633, and Burkholderia cepacia ATCC25416 grown in tryptic soy broth (TSB) (Difco BBL, Sparks, MD, USA) at 28 °C in 96-well plates as experimental units. Experiments were conducted in triplicate and all the results shown in this study are presented as mean ± standard deviation (SD).

The test system of test [2] is Bacillus subtilis ATCC6633. The conditions noted are these: TSB, mean ± SD, triplicate; for Inhibitory percentage, Bacillus subtilis: 100 µg/mL. The procedure:
as §1, §2, §3

The test system of test [3] is Burkholderia cepacia ATCC25416. Conditions: TSB, mean ± SD, triplicate; for Inhibitory percentage, Burkholderia cepacia: 100 µg/mL. On the procedure:
as §1, §2, §3

Setting [4] is: lower than 3 kDa hydrolysates and antibiotics, 6 h after treatment, 96-well.

As for `CC1(C)S[C@@H]2[C@H](NC(=O)[C@H](N)c3ccccc3)C(=O)N2[C@H]1C(=O)O` [ampicillin, reference compound], the inhibition at 100 µg/mL was 32 ± 1.59% in test [1] (Pseudomonas aeruginosa, ATCC28753, lower than 3 kDa hydrolysates and antibiotics, 6 h after treatment, 96-well, read-out: Inhibitory percentage, Pseudomonas aeruginosa); 85.2 ± 10.6% in test [2] (Bacillus subtilis, ATCC6633, lower than 3 kDa hydrolysates and antibiotics, 6 h after treatment, 96-well, read-out: Inhibitory percentage, Bacillus subtilis); 32.8 ± 4.18% in test [3] (Burkholderia cepacia, ATCC25416, lower than 3 kDa hydrolysates and antibiotics, 6 h after treatment, 96-well, read-out: Inhibitory percentage, Burkholderia cepacia).

Take `NC[C@H]1O[C@H](O[C@H]2[C@H](O)[C@@H](O[C@H]3O[C@H](CO)[C@@H](O)[C@H](N)[C@H]3O)[C@H](N)C[C@@H]2N)[C@H](O)[C@@H](O)[C@@H]1O` [kanamycin, reference compound]: the “Inhibitory percentage, Pseudomonas aeruginosa” value in test [1] (lower than 3 kDa hydrolysates and antibiotics, 100 µg/mL, 6 h after treatment, 96-well) was found to be 39.00 ± 2.81%. Further, the “Inhibitory percentage, Bacillus subtilis” value in test [2] (setting [4]) is 77.60 ± 0.85%. The “Inhibitory percentage, Burkholderia cepacia” value in test [3] (setting [4]) came out at 87.02 ± 0.42%.

For the compound “GAFHVTGL [compound 1, synthetic peptide from bagasse (AW6) hydrolysate; Photosystem II CP47 reaction center protein fragment]”, in test [1] (100 µg/mL), the “Inhibitory percentage, P. aeruginosa” value is 21.74 ± 0.96. Moreover, in test [2] (synthetic peptides), the “Inhibitory percentage, Bacillus subtilis” value was 3.82 ± 0.09. For the same compound, the “Inhibitory percentage, Burkholderia cepacia” value in test [3] (synthetic peptides) was 9.09 ± 0.04.

“NLWSNEINQDMAEF [Peptide no.3, Asn-Leu-Trp-Ser-Asn-Glu-Ile-Asn-Gln-Asp-Met-Ala-Glu-Phe, synthetic peptide from bagasse (AW6) hydrolysate; LRR receptor-like serine/threonine-protein kinase GSO2 fragment]”: the “Inhibitory percentage, P. aeruginosa” value in test [1] (100 µg/mL) is listed as 24.87 ± 0.81. The “Inhibitory percentage, Bacillus subtilis” value in test [2] (synthetic peptides) stood at 11.33 ± 0.29. In addition, the “Inhibitory percentage, Burkholderia cepacia” value in test [3] (synthetic peptides) was 23.32 ± 0.68.

In the case of “VLSSWGDESTL [compound 2, synthetic peptide from bagasse (AW6) hydrolysate; RNA helicase fragment]”, the “Inhibitory percentage, P. aeruginosa” value in test [1] (100 µg/mL) came out at 23.61 ± 0.12. For the same compound, the “Inhibitory percentage, Bacillus subtilis” value in test [2] (synthetic peptides) is reported as 4.45 ± 0.03. Moreover, the “Inhibitory percentage, Burkholderia cepacia” value in test [3] (synthetic peptides) amounted to 14.92 ± 0.72.

With “VSNCL [Peptide no.4, Val-Ser-Asn-Cys-Leu, synthetic peptide from bagasse (AW6) hydrolysate; 3-ketoacyl-CoA synthase fragment]”, in test [1] (100 µg/mL), the “Inhibitory percentage, P. aeruginosa” value worked out at 24.70 ± 0.81. In addition, in test [2] (synthetic peptides), the “Inhibitory percentage, Bacillus subtilis” value was found to be 10.39 ± 0.33. Moreover, in test [3] (synthetic peptides), the “Inhibitory percentage, Burkholderia cepacia” value was found to be 20.56 ± 0.28.

For the compound “WDTDNLSPDAVAAIKAAHPNVAVMAGL [compound 5, synthetic peptide from bagasse (AW6) hydrolysate; Chitinase fragment]”, in test [1] (100 µg/mL), the “Inhibitory percentage, P. aeruginosa” value came to 30.34 ± 0.95. Also, the “Inhibitory percentage, Bacillus subtilis” value in test [2] (synthetic peptides) was 5.97 ± 0.06. Further, the “Inhibitory percentage, Burkholderia cepacia” value in test [3] (synthetic peptides) is given as 20.51 ± 0.48.

Source of the values: PMC10044114, “Mechanisms of Antimicrobial Peptides from Bagasse against Human Pathogenic Bacteria” (Antibiotics, 2023).
